Measurements published in paper PMC7774954, “Interactomic affinity profiling by holdup assay: Acetylation and distal residues impact the PDZome-binding specificity of PTEN phosphatase” (PLoS ONE, 2020).
*1 amine or outer side, *2 acyl side, *3 side chain or, on linkers, in order; H or OH if unused. Where a SMILES comes first, the peptide text is derived from it. The star is where a group is joined. X1 = O=C(CCCC[C@@H]1SC[C@@H]2NC(=O)N[C@@H]21)NCCCOCCOCCOCCCN*; Suc = O=C(CCC(=O)[*:2])[*:1]

Columns and labels:
DLG1 PDZ 2 = molecular target: T1, DLG1 PDZ 2 (Homo sapiens, UniProt Q12959); test: Holdup assay, DLG1-2; type: binding; conditions: for BI: DLG1-2
T1 construct: made in house; host or cells: E. coli
Method: (§1) The holdup assay was performed on a Tecan freedom Evo200 robot with 384-well plates in singlicate for the three 11-mer PTEN variants and the 13-mer PTEN peptide as described in [31, 32]. Briefly, prior to interaction assay, 2.5 μL of streptavidin resin was saturated in each well with 20 μL of biotinylated PBM peptides (42 μM) and then washed twice with an excess of free biotin, while the reference resin was incubated only with biotin. Right before the holdup experiment, the PDZ library was spiked with an internal standard of lysozyme. Then, the biotin- or PBM-saturated resin was incubated, each in a distinct well of a 384-well plate, with complete cell lysates diluted so that the concentration of the tag-PDZ present in the crude extract is adjusted at 4 μM. After a sufficient time to reach complex equilibrium (15 min.), a fast and mild filtration step is performed and the tag-PDZ concentrations were measured by capillary electrophoresis instrument (LabChip GXII, PerkinElmer, Massachusets, USA). Standard markers were used to convert migration time into molecular weight on the LabChip software and inappropriate molecular weight markers were corrected or excluded.
(§2) For filtered data, the BI was extracted with the following equation (Eq 1) that estimates the depleted fraction after superimposition of the sample and reference electropherograms: BI=Iref−Ilig/Iref (1) where Iref and Ilig are the intensities of the tag-PDZ peaks measured, for each PDZ domain/PBM peptide interaction pair, in the biotin reference and the PBM electropherograms, respectively.
(§3) BIs were transformed into dissociation constants (KD) using the following formula: KD=([PDZtot]−BI·[PDZtot])·([PBMtot]−BI·[PDZtot])/BI·[PDZtot] (2) where [PDZtot] and [PBMtot] correspond to the total concentrations of the PDZ domain (usually around 4 μM) and the PBM peptide used during the assay. Since the PBMtot concentration in the resin during the holdup assay parameter may differ from one peptide to another and remains unknown, it is impossible to directly convert BI values into KD constants. We systematically determined the KD constants for a subset of PDZ/PBM pairs by competitive FP. […] For each PBM, the average peptide concentration was calculated after outlier rejection based on the absolute distances from the median as compared to three times the standard deviation (3σ rule), with never more than 2 values rejected.

MAGI2 PDZ 3 = molecular target: T2, MAGI2 PDZ 3 (Homo sapiens, UniProt Q86UL8); test: Holdup assay, MAGI2-3; type: binding; conditions: for BI: MAGI2-3
T2 construct: made in house; host or cells: E. coli
Method: as §1, §2, §3

MAST3 PDZ 1 = molecular target: T3, MAST3 PDZ 1 (Homo sapiens, UniProt O60307); test: Holdup assay, MAST3-1; type: binding; conditions: for BI: MAST3-1
T3 construct: made in house; host or cells: E. coli
T3 sequence (O60307 950-1038 limits assumed): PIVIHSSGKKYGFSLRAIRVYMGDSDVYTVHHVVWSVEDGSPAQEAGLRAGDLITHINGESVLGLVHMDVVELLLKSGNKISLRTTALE
Method: as §1, §2, §3

NHERF2 PDZ 2 = molecular target: T4, NHERF2 PDZ 2 (Homo sapiens, UniProt Q15599); test: Holdup assay, NHERF2-2; type: binding; conditions: for BI: PDZ domain NHERF2-2 (gene MPDZ, 9)
T4 construct: made in house; host or cells: E. coli
Method: as §1, §2, §3

HTRA1-1 = molecular target: T5, HTRA1-1 (Homo sapiens, UniProt Q92743); test: Holdup assay, HTRA1-1; type: binding
T5 construct: His-MBP or His-TRX (N); made in house; host or cells: E. coli
Method: as §1, §2

AHNAK2-1 = test: Holdup assay, AHNAK2-1; type: binding, human
ARHGAP21-1 = test: Holdup assay, ARHGAP21-1; type: binding, human
CASK-1 = test: Holdup assay, CASK-1; type: binding, human
DLG2-1 = DLG2-1 (Homo sapiens, UniProt Q15700); test: Holdup assay, DLG2-1; type: binding; conditions: for BI / LogKD: DLG2-1
FRMPD2-3 = test: Holdup assay, FRMPD2-3; type: binding, human
FRMPD4-1 = test: Holdup assay, FRMPD4-1; type: binding, human
GIPC1-1 = test: Holdup assay, GIPC1-1; type: binding, human
GORASP2-1 = GORASP2-1 (Homo sapiens, UniProt Q9H8Y8); test: Holdup assay, GORASP2-1; type: binding
GRIP1-1 = test: Holdup assay, GRIP1-1; type: binding, human
GRIP1-6 = test: Holdup assay, GRIP1-6; type: binding, human
HTRA4-1 = test: Holdup assay, HTRA4-1; type: binding, human
INADL-6 = INADL-6 (Homo sapiens, UniProt Q8NI35); test: Holdup assay, INADL-6; type: binding
INADL-7 = INADL-7 (Homo sapiens, UniProt Q8NI35); test: Holdup assay, INADL-7; type: binding
INTU-1 = test: Holdup assay, INTU-1; type: binding, human
LIN7A-1 = test: Holdup assay, LIN7A-1; type: binding, human
MPDZ-1 = test: Holdup assay, MPDZ-1; type: binding, human

T1 sequence (Q12959 319-405 limits assumed): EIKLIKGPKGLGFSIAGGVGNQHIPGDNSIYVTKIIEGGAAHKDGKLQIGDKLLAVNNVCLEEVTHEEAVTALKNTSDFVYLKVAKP
Sequence of INADL-7 (Q8NI35 whole entry): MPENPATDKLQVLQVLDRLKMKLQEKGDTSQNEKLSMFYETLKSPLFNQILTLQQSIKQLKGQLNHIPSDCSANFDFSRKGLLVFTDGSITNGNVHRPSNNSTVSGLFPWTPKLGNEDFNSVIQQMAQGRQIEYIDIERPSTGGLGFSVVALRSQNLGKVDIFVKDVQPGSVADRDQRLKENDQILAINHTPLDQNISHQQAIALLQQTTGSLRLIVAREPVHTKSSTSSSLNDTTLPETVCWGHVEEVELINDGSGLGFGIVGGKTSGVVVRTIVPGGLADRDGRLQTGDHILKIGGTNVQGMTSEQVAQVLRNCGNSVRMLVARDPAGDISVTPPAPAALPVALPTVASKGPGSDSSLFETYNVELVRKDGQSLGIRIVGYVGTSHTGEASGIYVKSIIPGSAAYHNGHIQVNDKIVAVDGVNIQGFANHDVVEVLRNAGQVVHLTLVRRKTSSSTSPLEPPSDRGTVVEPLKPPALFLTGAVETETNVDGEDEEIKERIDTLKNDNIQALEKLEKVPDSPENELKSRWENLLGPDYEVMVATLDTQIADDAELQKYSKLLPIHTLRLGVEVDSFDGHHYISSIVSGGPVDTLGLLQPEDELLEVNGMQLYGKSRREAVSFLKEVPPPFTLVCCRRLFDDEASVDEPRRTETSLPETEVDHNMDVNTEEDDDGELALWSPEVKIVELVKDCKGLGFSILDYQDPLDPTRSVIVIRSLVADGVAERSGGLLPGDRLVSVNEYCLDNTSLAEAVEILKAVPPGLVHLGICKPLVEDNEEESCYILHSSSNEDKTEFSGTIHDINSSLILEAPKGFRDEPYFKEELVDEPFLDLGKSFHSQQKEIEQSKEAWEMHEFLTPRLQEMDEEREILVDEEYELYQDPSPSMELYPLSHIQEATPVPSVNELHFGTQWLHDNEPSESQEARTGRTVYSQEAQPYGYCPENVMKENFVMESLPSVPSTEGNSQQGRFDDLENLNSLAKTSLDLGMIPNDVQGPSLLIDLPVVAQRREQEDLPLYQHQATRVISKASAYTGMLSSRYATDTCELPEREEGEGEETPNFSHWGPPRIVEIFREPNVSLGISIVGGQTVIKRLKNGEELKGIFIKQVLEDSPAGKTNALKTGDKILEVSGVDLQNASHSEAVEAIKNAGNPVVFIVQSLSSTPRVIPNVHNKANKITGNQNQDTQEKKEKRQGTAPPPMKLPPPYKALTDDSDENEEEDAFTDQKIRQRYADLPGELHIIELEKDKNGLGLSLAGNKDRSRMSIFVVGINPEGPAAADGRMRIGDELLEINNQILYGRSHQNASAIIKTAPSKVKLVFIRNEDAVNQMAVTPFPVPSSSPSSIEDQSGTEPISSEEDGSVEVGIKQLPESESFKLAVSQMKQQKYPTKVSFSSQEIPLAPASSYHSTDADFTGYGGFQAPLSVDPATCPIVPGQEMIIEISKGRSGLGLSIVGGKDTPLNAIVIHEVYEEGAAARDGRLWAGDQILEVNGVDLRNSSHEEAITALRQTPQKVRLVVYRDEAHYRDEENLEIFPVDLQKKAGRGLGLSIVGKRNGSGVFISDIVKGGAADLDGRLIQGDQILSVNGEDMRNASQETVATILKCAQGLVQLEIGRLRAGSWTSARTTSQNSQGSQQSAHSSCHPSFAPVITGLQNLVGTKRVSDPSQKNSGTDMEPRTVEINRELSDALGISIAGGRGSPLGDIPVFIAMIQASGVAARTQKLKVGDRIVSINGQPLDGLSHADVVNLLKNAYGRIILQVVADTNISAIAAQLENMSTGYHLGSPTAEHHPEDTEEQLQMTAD
Sequence of INADL-6 (Q8NI35 whole entry): as above
T2 sequence (Q86UL8 605-683 limits assumed): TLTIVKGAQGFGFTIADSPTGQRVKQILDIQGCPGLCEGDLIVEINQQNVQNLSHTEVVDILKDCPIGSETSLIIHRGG
T4 sequence (Q15599 150-230 limits assumed): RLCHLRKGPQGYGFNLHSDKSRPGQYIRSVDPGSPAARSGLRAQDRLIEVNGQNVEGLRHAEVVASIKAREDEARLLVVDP
T5 sequence (Q92743 365-467 limits assumed): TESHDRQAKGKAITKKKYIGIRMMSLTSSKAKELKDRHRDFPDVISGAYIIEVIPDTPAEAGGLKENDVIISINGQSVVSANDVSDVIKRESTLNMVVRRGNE

Compound	BI (DLG1 PDZ 2)	Kd (MAGI2 PDZ 3) [µM]	BI (MAGI2 PDZ 3)	BI (MAST3 PDZ 1)	BI (NHERF2 PDZ 2)	Kd (HTRA1-1) [µM]	BI (HTRA1-1; HTRA1-1)	BI (ARHGAP21-1)	BI (DLG2-1)	BI (FRMPD2-3)	BI (FRMPD4-1)	BI (GIPC1-1)	BI (GORASP2-1; GORASP2-1)	BI (GRIP1-6)	BI (HTRA4-1)	BI (INADL-6)	BI (INADL-7)	BI (INTU-1)	BI (LIN7A-1)	BI (MPDZ-1)	further results
CC[C@H](C)[C@H](NC(=O)[C@H](CCC(N)=O)NC(=O)[C@@H](NC(=O)[C@H](Cc1c[nH]cn1)NC(=O)[C@H](CCC(N)=O)NC(=O)[C@H](CC(=O)O)NC(=O)[C@H](CCC(=O)O)NC(=O)[C@H](CC(=O)O)NC(=O)CCC(=O)NCCCOCCOCCOCCCNC(=O)CCCC[C@@H]1SC[C@@H]2NC(=O)N[C@@H]21)[C@@H](C)O)C(=O)N[C@H](C(=O)N[C@@H](CCCCN)C(=O)N[C@H](C(=O)O)C(C)C)[C@@H](C)O [PTEN_11]	0.09	47.2	0.407	0.122	0.476	47.6	0.405	-0.072	0.034	-0.046	-0.004	0.042	0.403	0.065	0.062	0.077	0.136	-0.089	-0.017	0.039	Kd (NHERF2 PDZ 2): 35.3 µM; BI (binding intensity) (HTRA1-1; HTRA1-1, holdup, singlicate): 0.41; BI (AHNAK2-1): -0.026; LogKD (AHNAK2-1): 3.519; LogKD (ARHGAP21-1): 3.519; BI (CASK-1): -0.049; LogKD (CASK-1): 3.519; LogKD (DLG2-1): 3.519; LogKD (FRMPD2-3): 3.519; LogKD (FRMPD4-1): 3.519; LogKD (GIPC1-1): 3.519; Kd (GORASP2-1): 48 µM; BI (GRIP1-1): -0.021; LogKD (GRIP1-1): 3.519; LogKD (GRIP1-6): 3.519; LogKD (HTRA4-1): 3.519; LogKD (INADL-6): 3.519; LogKD (INTU-1): 3.519; LogKD (LIN7A-1): 3.519; LogKD (MPDZ-1): 3.519
CC[C@H](C)[C@H](NC(=O)[C@H](CCC(N)=O)NC(=O)[C@@H](NC(=O)[C@H](Cc1c[nH]cn1)NC(=O)[C@H](CCC(N)=O)NC(=O)[C@H](CC(=O)O)NC(=O)[C@H](CCC(=O)O)NC(=O)[C@H](CC(=O)O)NC(=O)[C@H](Cc1ccccc1)NC(=O)[C@@H]1CCCN1C(=O)CCC(=O)NCCCOCCOCCOCCCNC(=O)CCCC[C@@H]1SC[C@@H]2NC(=O)N[C@@H]21)[C@@H](C)O)C(=O)N[C@H](C(=O)N[C@@H](CCCCN)C(=O)N[C@H](C(=O)O)C(C)C)[C@@H](C)O [PTEN_13] ({X1-Suc}-PFDEDQHTQITKV-OH)	0.168	30.1	0.342	-0.161	0.117	52.3	0.235	0.028	0.035	-0.027	-0.07	-0.02	0.092	0.004	0.011	0.044	0.07	-0.039	-0.019	0.011	BI (CASK-1): -0.07; LogKD (DLG2-1): 3.826; LogKD (GORASP2-1; GORASP2-1): 3.826; BI (GRIP1-1): -0.079; LogKD (INADL-6): 3.826; LogKD (INADL-7): 3.826
CC[C@H](C)[C@H](NC(=O)[C@H](CCC(N)=O)NC(=O)[C@@H](NC(=O)[C@H](Cc1c[nH]cn1)NC(=O)[C@H](CCC(N)=O)NC(=O)[C@H](CC(=O)O)NC(=O)[C@H](CCC(=O)O)NC(=O)[C@H](CC(=O)O)NC(=O)CCC(=O)NCCCOCCOCCOCCCNC(=O)CCCC[C@@H]1SC[C@@H]2NC(=O)N[C@@H]21)[C@@H](C)O)C(=O)N[C@H](C(=O)N[C@@H](CCCCNC(C)=O)C(=O)N[C@H](C(=O)O)C(C)C)[C@@H](C)O [PTEN_Ac]	0.425	15.3	0.625	0.242	0.066	10.2	0.712	0.012	0.211	-0.064	-0.076	0.035	0.418	-0.056	-0.059	0.316	0.306	0.042	-0.07	0.074	Kd (DLG1 PDZ 2): 35.6 µM; Kd (MAST3 PDZ 1): 84.7 µM; BI (AHNAK2-1): 0.034; LogKD (AHNAK2-1): 3.605; LogKD (ARHGAP21-1): 3.605; BI (CASK-1): -0.102; LogKD (CASK-1): 3.605; Kd (DLG2-1): 102 µM; LogKD (FRMPD2-3): 3.605; LogKD (FRMPD4-1): 3.605; LogKD (GIPC1-1): 3.605; Kd (GORASP2-1): 36.7 µM; LogKD (GRIP1-6): 3.605; LogKD (HTRA4-1): 3.605; Kd (INADL-6): 57.9 µM; Kd (INADL-7): 60.7 µM; LogKD (INTU-1): 3.605; LogKD (LIN7A-1): 3.605; LogKD (MPDZ-1): 3.605
CC[C@H](C)[C@H](NC(=O)[C@H](CCC(N)=O)NC(=O)[C@@H](NC(=O)[C@H](Cc1c[nH]cn1)NC(=O)[C@H](CCC(N)=O)NC(=O)[C@H](CC(=O)O)NC(=O)[C@H](CCC(=O)O)NC(=O)[C@H](CC(=O)O)NC(=O)CCC(=O)NCCCOCCOCCOCCCNC(=O)CCCC[C@@H]1SC[C@@H]2NC(=O)N[C@@H]21)[C@@H](C)O)C(=O)N[C@H](C(=O)N[C@@H](CCCNC(=N)N)C(=O)N[C@H](C(=O)O)C(C)C)[C@@H](C)O [PTEN_KR] ({X1-Suc}-DEDQHTQITRV-OH)	0.253	21.2	0.52	0.228	0.523	40.4	0.368	0.074	0.191	-0.067	-0.051	0.02	0.586	0.038	0.004	0.066	0.176	-0.043	-0.026	-0.039	Kd (DLG1 PDZ 2): 70.8 µM; Kd (MAST3 PDZ 1): 81.6 µM; Kd (NHERF2 PDZ 2): 20.9 µM; BI (AHNAK2-1): -0.009; LogKD (AHNAK2-1): 3.655; LogKD (ARHGAP21-1): 3.655; LogKD (CASK-1): 3.655; LogKD (FRMPD2-3): 3.655; LogKD (FRMPD4-1): 3.655; LogKD (GIPC1-1): 3.655; Kd (GORASP2-1): 16 µM; BI (GRIP1-1): -0.163; LogKD (GRIP1-1): 3.655; LogKD (GRIP1-6): 3.655; LogKD (HTRA4-1): 3.655; LogKD (INADL-6): 3.655; LogKD (INTU-1): 3.655; LogKD (LIN7A-1): 3.655; LogKD (MPDZ-1): 3.655
